Measurements taken from ChEMBL document CHEMBL1641467, “Quinazolinones as γ-secretase modulators” (Bioorg Med Chem Lett, 2011).
Converted amounts (≈) assume the structure as drawn.

What was measured:
Gamma-secretase [1] = assay: Inhibition of gamma-secretase in human SH-SY5Y cells overexpressing APP assessed as amyloid beta-42 production by electrochemiluminescent assay
Gamma-secretase [2] = assay: Inhibition of gamma-secretase in human SH-SY5Y cells overexpressing APP assessed as amyloid beta-40 production by electrochemiluminescent assay
[3] = target: Voltage-gated inwardly rectifying potassium channel KCNH2 (Homo sapiens, UniProt Q12809)
Chain of Voltage-gated inwardly rectifying potassium channel KCNH2 (Q12809 whole entry): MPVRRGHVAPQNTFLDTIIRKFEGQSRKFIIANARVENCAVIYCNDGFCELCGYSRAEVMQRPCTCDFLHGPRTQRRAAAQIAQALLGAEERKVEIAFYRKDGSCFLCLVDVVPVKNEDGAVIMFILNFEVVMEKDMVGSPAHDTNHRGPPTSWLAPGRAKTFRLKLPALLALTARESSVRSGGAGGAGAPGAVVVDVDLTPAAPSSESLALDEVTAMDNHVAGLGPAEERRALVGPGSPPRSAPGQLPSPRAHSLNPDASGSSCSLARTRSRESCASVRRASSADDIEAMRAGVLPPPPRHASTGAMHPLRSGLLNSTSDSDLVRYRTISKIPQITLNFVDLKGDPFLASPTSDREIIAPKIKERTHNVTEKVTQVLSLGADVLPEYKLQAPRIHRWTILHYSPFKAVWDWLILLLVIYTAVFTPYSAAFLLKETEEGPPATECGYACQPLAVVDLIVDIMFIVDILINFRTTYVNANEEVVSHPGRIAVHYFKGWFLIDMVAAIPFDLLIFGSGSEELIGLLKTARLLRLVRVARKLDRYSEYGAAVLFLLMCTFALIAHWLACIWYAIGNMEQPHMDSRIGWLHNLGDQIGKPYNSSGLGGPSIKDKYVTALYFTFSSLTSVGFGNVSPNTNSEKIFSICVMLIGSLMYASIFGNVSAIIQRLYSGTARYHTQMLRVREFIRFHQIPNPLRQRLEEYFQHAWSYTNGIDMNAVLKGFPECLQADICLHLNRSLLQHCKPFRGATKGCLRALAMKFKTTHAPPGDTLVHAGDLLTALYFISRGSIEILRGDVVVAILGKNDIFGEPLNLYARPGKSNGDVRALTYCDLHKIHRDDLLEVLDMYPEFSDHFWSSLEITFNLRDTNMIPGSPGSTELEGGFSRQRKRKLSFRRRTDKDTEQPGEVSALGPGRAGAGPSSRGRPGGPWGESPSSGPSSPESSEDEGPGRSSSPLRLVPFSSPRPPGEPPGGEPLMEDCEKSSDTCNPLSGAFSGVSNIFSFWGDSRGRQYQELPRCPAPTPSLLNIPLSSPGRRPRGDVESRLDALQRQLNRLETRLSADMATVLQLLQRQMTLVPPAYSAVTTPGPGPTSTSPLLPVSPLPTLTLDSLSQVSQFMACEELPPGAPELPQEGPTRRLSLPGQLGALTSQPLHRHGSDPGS
Description: Displacement of radiolabeled MK-499 from human ERG expressed in HEK293 cells

[4] = Solubility of the compound in PBS buffer; type: physicochemical
[5] = Volume of distribution at steady state in Sprague-Dawley rat at 1 mg/kg, iv; type: ADME, organism-based; set-up: dose 1 mg/kg, route intravenous; conditions: in vivo
Rattus norvegicus [6] = assay: Dose normalized AUC in Sprague-Dawley rat at 2 mg/kg, po; type: ADME, organism-based; set-up: dose 2 mg/kg, route oral; conditions: in vivo
[7] = Oral bioavailability in Sprague-Dawley rat at 2 mg/kg; type: ADME, organism-based; conditions: in vivo
[8] = Plasma clearance in Sprague-Dawley rat at 1 mg/kg, iv; type: ADME, organism-based; set-up: dose 1 mg/kg, route intravenous
[9] = Half life in Sprague-Dawley rat at 1 mg/kg, iv; type: ADME, organism-based; set-up: dose 1 mg/kg, route intravenous; conditions: in vivo
Rattus norvegicus [10] = assay: Volume of distribution at steady state in Sprague-Dawley rat at 2 mg/kg, po; type: ADME, organism-based; set-up: dose 2 mg/kg, route oral; conditions: in vivo
[11] = Plasma clearance in Sprague-Dawley rat at 2 mg/kg, po; type: ADME, organism-based; set-up: dose 2 mg/kg, route oral

COc1cc(/C=C/c2nc3ccccc3[nH]2)ccc1-n1cnc(C)c1
IC50 (Gamma-secretase [1]): 840 nM | IC50 (Gamma-secretase [2]): > 10000 nM | IC50 [3]: 680 nM

COc1cc(/C=C/c2nc(N)c3ccccc3n2)ccc1-n1cnc(C)c1
IC50 (Gamma-secretase [1]): 1690 nM | IC50 (Gamma-secretase [2]): 6100 nM | IC50 [3]: 140 nM | solubility [4]: 6 µM (≈ 2.14 µg/mL)

COc1cc(/C=C/c2nc3cc(Cl)ccc3c(=O)[nH]2)ccc1-n1cnc(C)c1
IC50 (Gamma-secretase [1]): 660 nM | Vd [5]: 1.8 L/kg | AUC (Rattus norvegicus [6]): 7 µM·h | IC50 (Gamma-secretase [2]): > 10000 nM | bioavailability [7]: 59% | clearance [8]: 6.8 mL/min/kg | half-life [9]: 5.8 h | Vdss (Rattus norvegicus [10]): 8 L/kg | CL/F [11]: 8 mL/min/kg

COc1cc(/C=C/c2nc(N)c3c(n2)oc2ccccc23)ccc1-n1cnc(C)c1
IC50 (Gamma-secretase [1]): 320 nM | IC50 (Gamma-secretase [2]): 2960 nM | IC50 [3]: 510 nM

COc1cc(/C=C/c2nc3cc(S(C)(=O)=O)ccc3c(=O)[nH]2)ccc1-n1cnc(C)c1
IC50 (Gamma-secretase [1]): 2180 nM | IC50 (Gamma-secretase [2]): 6740 nM

CCOC(=O)c1sc2nc(/C=C/c3ccc(-n4cnc(C)c4)c(OC)c3)nc(N)c2c1C
IC50 (Gamma-secretase [1]): 540 nM | IC50 (Gamma-secretase [2]): 3720 nM | IC50 [3]: 980 nM

COc1cc(/C=C/c2nc3cccc(F)c3c(=O)[nH]2)ccc1-n1cnc(C)c1
IC50 (Gamma-secretase [1]): 4870 nM | IC50 (Gamma-secretase [2]): > 10000 nM

COc1cc(/C=C/c2nc3ccccc3c(=O)n2-c2ccccc2)ccc1-n1cnc(C)c1
IC50 (Gamma-secretase [1]): 2080 nM | IC50 (Gamma-secretase [2]): > 10000 nM | IC50 [3]: 990 nM

COc1cc(/C=C/c2nc(N)c3c4c(sc3n2)CCCCC4)ccc1-n1cnc(C)c1
IC50 (Gamma-secretase [1]): 200 nM | IC50 (Gamma-secretase [2]): 2030 nM

COc1cc(/C=C/c2nc3cc(Br)ccc3c(=O)[nH]2)ccc1-n1cnc(C)c1
IC50 (Gamma-secretase [1]): 340 nM | IC50 (Gamma-secretase [2]): 4820 nM

COc1cc(/C=C/c2nc3scc(C)c3c(=O)[nH]2)ccc1-n1cnc(C)c1
IC50 (Gamma-secretase [1]): 1290 nM | IC50 (Gamma-secretase [2]): > 10000 nM | IC50 [3]: > 10000 nM

COc1cc(/C=C/c2nc3sc(C)c(C)c3c(=O)[nH]2)ccc1-n1cnc(C)c1
IC50 (Gamma-secretase [1]): 1650 nM | IC50 (Gamma-secretase [2]): > 10000 nM | IC50 [3]: > 10000 nM

COc1cc(/C=C/c2nc(N)nc(Nc3ccccc3)n2)ccc1-n1cnc(C)c1
IC50 (Gamma-secretase [1]): 1070 nM | IC50 (Gamma-secretase [2]): 3330 nM

COc1cc(/C=C/c2nc3ccc(F)cc3c(=O)[nH]2)ccc1-n1cnc(C)c1
IC50 (Gamma-secretase [1]): 4280 nM | IC50 (Gamma-secretase [2]): > 10000 nM

COc1cc(/C=C/c2nc3ccccc3c(=O)[nH]2)ccc1-n1cnc(C)c1
IC50 (Gamma-secretase [1]): 3890 nM | IC50 (Gamma-secretase [2]): 4950 nM

COc1cc(/C=C/c2nc3cc(C(F)(F)F)ccc3c(=O)[nH]2)ccc1-n1cnc(C)c1
IC50 (Gamma-secretase [1]): 370 nM | IC50 (Gamma-secretase [2]): 3740 nM

COc1cc(/C=C/c2nc(NCc3ccccc3)c3c4c(sc3n2)CCC4)ccc1-n1cnc(C)c1
IC50 (Gamma-secretase [1]): 1860 nM | IC50 (Gamma-secretase [2]): > 10000 nM | IC50 [3]: 1120 nM

COc1cc(/C=C/c2nc3ccccc3c(=O)n2C)ccc1-n1cnc(C)c1
IC50 (Gamma-secretase [1]): > 10000 nM | IC50 (Gamma-secretase [2]): > 10000 nM | solubility [4]: 33 µM (≈ 12.3 µg/mL)

COc1cc(/C=C/c2nc3sc4c(c3c(=O)[nH]2)CCC4)ccc1-n1cnc(C)c1
IC50 (Gamma-secretase [1]): 370 nM | IC50 (Gamma-secretase [2]): 3890 nM | IC50 [3]: 4730 nM
